Source: paper PMC9841576, “Characterisation of C101248: A novel selective THIK-1 channel inhibitor for the modulation of microglial NLRP3-inflammasome” (Neuropharmacology, 2023)
Where two headings read alike, the source gives them in different places.

Legend:
Format in all cases: cell-based
mouse THIK-1 = biological target: T1, mouse THIK-1 (Mus musculus, UniProt Q8R1P5); experiment: FLIPR thallium influx assay, HEK-mTHIK-1 cells
T1 construct: expressed in transfected cells
T1 sequence (Q8R1P5 1-405): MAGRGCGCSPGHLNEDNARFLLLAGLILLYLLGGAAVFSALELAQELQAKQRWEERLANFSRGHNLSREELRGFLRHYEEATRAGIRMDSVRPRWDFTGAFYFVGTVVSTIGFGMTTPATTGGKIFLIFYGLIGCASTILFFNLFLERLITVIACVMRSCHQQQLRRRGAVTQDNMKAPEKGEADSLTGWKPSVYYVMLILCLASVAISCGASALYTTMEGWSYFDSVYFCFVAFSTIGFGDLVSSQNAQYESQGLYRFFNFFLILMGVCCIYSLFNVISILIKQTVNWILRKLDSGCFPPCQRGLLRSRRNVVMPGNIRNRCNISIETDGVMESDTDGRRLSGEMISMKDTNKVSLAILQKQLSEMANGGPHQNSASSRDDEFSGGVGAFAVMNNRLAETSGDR
Protocol: (§1) HEK-293 cells were transfected with human THIK-1, TREK-1, TWIK-2, or mouse THIK-1 cDNA cloned into pcDNA3.1, using either Fugene HD transfection reagent (Promega) or electroporation (MaxCyte STX instrument). Cells stably expressing the relevant genes were selected based on resistance to 500 μg/ml geneticin (Gibco). For human THIK-1 and TWIK-2 expressing cells, monoclonal lines were isolated by limited dilution cloning; mouse THIK-1 and human TREK-1 expressing cells were maintained as polyclonal pools. The HEK-293 pools and monoclones stably expressing the relevant genes were maintained in DMEM (Life Technologies), supplemented with 10% FCIII (HyClone, Fetal clone III) and 500 μg/ml geneticin. A CHO-Kv2.1 cell line was purchased from Millipore (accession NM_004975) and maintained in F12 (Life Technologies), supplemented with 10% FCSIII (Thermo Scientific) and 500 μg/ml geneticin (Life Technologies). For thallium flux assays, banks of frozen cell aliquots were prepared the day prior to assay, cells were thawed into media and seeded into PDL coated 384-well plates (Corning) at 25,000 (human/mouse THIK-1, TREK-1) or 30,000 (TWIK-2) cells/well (25 μl/well). CHO-Kv2.1 cells were seeded into non-PDL coated plates (Corning) at 5000 cells/well. Plated cells were incubated overnight at 37 °C, 5% CO2 in a humidified atmosphere. For Q-Patch assays, cells were cultured for 7 days prior to assay, dissociated, and diluted to 1–2.5 million/ml in EX-CELL ACF serum free media containing HEPES (25 mM; Life Technologies), penicillin/streptomycin (100 U/ml, 100 μg/ml; Life Technologies) and a trypsin inhibitor (0.04 mg/ml).
A fluorescence-based thallium influx assay (Molecular Devices potassium assay kit) was used to monitor channel activity. […] Using a fluorescent imaging plate reader (FLIPR) tetra plate reader, 15 μl thallium stimulus solution was added to the cell plate and the fluorescence signal recorded every second for 1 min (excitation: 470–495 nm, emission: 515–575 nm).

THIK-1 [1] = biological target: T2, THIK-1 (Homo sapiens, UniProt Q9HB14); experiment: FLIPR thallium influx assay, HEK-hTHIK-1 cells
T2 construct: expressed in transfected cells
T2 sequence (Q9HB14 1-408): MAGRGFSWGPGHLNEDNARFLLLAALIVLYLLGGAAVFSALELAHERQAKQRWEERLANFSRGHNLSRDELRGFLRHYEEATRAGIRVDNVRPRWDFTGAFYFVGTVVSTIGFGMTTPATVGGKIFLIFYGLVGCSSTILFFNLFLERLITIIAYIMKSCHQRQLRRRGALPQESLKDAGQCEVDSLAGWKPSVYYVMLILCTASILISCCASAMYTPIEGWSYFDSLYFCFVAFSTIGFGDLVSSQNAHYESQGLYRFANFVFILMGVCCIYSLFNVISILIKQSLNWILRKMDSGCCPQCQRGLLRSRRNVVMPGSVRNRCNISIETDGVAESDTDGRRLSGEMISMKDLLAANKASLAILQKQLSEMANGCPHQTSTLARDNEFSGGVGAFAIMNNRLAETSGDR
Protocol: as §1
(§2) A fluorescence-based thallium influx assay (Molecular Devices potassium assay kit) was used to monitor channel activity. In brief, component A was reconstituted in 17 ml of chloride-free assay buffer (130 mM sodium D-gluconate, 5 mM potassium D-gluconate, 2 mM calcium D-gluconate, 1 mM magnesium D-gluconate, 5 mM NaHCO3, 20 mM HEPES; pH adjusted to 7.4 with NaOH and filtered (0.45 μm filter)) and component C reconstituted in 30 μl of DMSO. Components A and C were combined, and probenecid was added (Life Technologies; final assay concentration (FAC) 4.75 mM for HEK cell lines and 2.47 mM for CHO-Kv2.1) to provide the final dye solution. Media was removed from the cell plates and replaced with dye (20 μl/well) and the plates were incubated at room temperature in the dark for 60 min. On the day of the assay, a diluted compound plate (3x FAC in 1.5% DMSO) was created. Control wells contained either DMSO vehicle (1.5%, 3x FAC) or tetrapentylammonium chloride (TPA; Sigma, 258962; 1.5 mM in 1.5% DMSO, 3x FAC). A 3x thallium stimulation plate was also prepared, to provide a FAC of either 1 mM (human THIK-1) or 3 mM (mouse THIK-1, TREK-1, TWIK-2) thallium sulphate (in assay buffer). For Kv2.1, the FAC of thallium sulphate was 2.6 mM and this was prepared in assay buffer containing potassium sulphate (Sigma P9458; FAC 23.3 mM). Following 60 min of dye loading, 10 μl from the 3x FAC compound plate was added into the cell plate, which was then incubated for 15 min at room temperature in the dark. Using a fluorescent imaging plate reader (FLIPR) tetra plate reader, 15 μl thallium stimulus solution was added to the cell plate and the fluorescence signal recorded every second for 1 min (excitation: 470–495 nm, emission: 515–575 nm).

THIK-1 [2] = biological target: T2, THIK-1; experiment: Thallium flux functional wash-off assay, HEK-hTHIK-1 cells
Protocol: as §2
For the functional wash-off assay, plates were tested in parallel that were run as standard (no wash) with plates that had undergone an additional assay buffer wash and incubation period following compound addition. Briefly, after a 15 min compound incubation, plates were either moved to the FLIPR for immediate thallium addition (standard) or the plates were washed with assay buffer to remove compound solutions (50 μl/well addition and removal), 30 μl/well assay buffer added and the plates incubated for 60 min, followed by thallium addition on the FLIPR (60 min wash).

IC50 (mouse THIK-1; HEK-mTHIK-1, normalised to TPA controls, read-out: IC50, mouse THIK-1 (thallium influx)): 49 nM
maximum inhibition (mouse THIK-1; HEK-mTHIK-1, thallium influx): 100%
IC50 (mouse THIK-1; mouse THIK-1, read-out: IC50, inhibition of mouse THIK-1 (abstract)): ~50 nM
IC50 (THIK-1 [1]; HEK-hTHIK-1, normalised to TPA controls, read-out: IC50, inhibition of THIK-1 constitutive activity (thallium influx)): 46 nM
maximum inhibition (THIK-1 [1]; HEK-hTHIK-1, thallium influx, normalised to TPA controls): 102%
IC50 (THIK-1 [1]; human THIK-1, read-out: IC50, inhibition of human THIK-1 (abstract)): ~50 nM
potency relative to tetrapenthylammonium chloride (TPA) (THIK-1 [1]; human and mouse THIK-1 constitutive activity, thallium influx and Q-patch): 100 times
Hill slope (nH) (THIK-1 [2]; 60 min wash): 0.54
maximum inhibition (60 min wash) (THIK-1 [2]; 60 min wash): 93%
lower potency after 60 min wash-off compared to standard format (THIK-1 [2]; 60 min wash vs no wash): 3.4 fold
IC50 (THIK-1 [2]; compound removed, 60 min incubation in buffer before thallium, read-out: IC50 (60 min wash)): 96 nM
Hill slope (nH) (THIK-1 [2]; no wash): 1.3
maximum inhibition (no wash) (THIK-1 [2]; no wash): 101%
IC50 (THIK-1 [2]; standard format, 15 min compound incubation, immediate thallium addition, read-out: IC50 (no wash)): 28 nM
SMILES: Nc1nonc1-c1nc2ccccc2n1Cc1ccncc1 [C101248]
